Data reported in US20260364072A1, “METHODS FOR PROMOTING EXPANSION OF HUMAN CD34+ CELLS IN VIVO AND FOR PROMOTING NEURAL REGENERATION” (THE REGENTS OF THE UNIVERSITY OF CALIFORNIA, priority 2023, published 2026).

Legend:
[1] = tested on: human CD45+ADAR1-GFP+ cells and CD45+CD3+ADAR1-GFP+ cells; assay: aNBM SAK378 PDX mice, flow cytometry; type: in vivo, human cells in NSG-SGM3 mice; conditions: 10 mg/kg, IV, BIW×2
Experimental: Aged normal bone marrow (aNBM) PDX mouse models SAK378 were established with 80-100K ADAR1-reporter transduced CD34+ cells by IV injection into NSG-SGM3 mice at the age of 5-6 weeks. When the models were ready, the mice were treated with either vehicle or rebecsinib (10 mg/kg, IV, BIW×2). The mice were sacrificed upon completion of the dosing plan, and single cells from PB, SP, and BM were collected and stained with mAbs for CD45, CD3, CD14, and CD19.

[2] = tested on: phospho-STAT3; assay: phospho-STAT3 intracellular flow cytometry; type: cell-based, human
Experimental: Flow cytometry for stem and progenitor cell surface antibody staining was performed as previously described.^14 For phospho-flow, a subset of samples was fixed and permeabilized, then blocked and stained with APC-conjugated ADAR1p150 antibody (cat ab269444, 1:25) and pSTAT3 APC (cat 17-9033-42, 1:10) (Table S2). Fractions were analyzed with the BD LSR FORTESSA™ (Sanford Consortium for Regenerative Medicine Stem Cell Core) and FLOWJO™ software (TreeStar, Ashland, OR).

[3] = tested on: splicing reporter in KG-1a AML cells; assay: Lentiviral dual fluorescence (RFP/GFP) splicing reporter in KG-1a cells; type: cell-based, human; conditions: 24 hr
From the text: (FIG. 29A) Quantification of cell viability (left panel) and splicing modulation (RFP/GFP ratios, right panel) by flow cytometry analyses of the human AML cell line (KG-1a) stably transduced with a lentiviral dual-fluorescence splicing reporter vector and treated with increasing concentrations of Rebecsinib.
For generation of stably transduced splicing reporter cell lines, a previously described splicing reporter construct^31 was cloned into a lentiviral vector backbone.^52 KG-1a cells were transduced with the dual-fluorescent lentiviral splicing reporter vector, treated with various concentrations of Rebecsinib (3-fold serial dilutions from 3 μM to 4 nM) for 24 hr, washed followed by DAPI staining, and analyzed by flow cytometry for cell viability and RFP/GFP fluorescence intensity. Results were from duplicate wells of each condition. Viability of cells treated with DMSO (0.5% final concentration) was set as 100%. Nonlinear regression curve fit analysis was carried out using Prism software (GraphPad) to determine ECso values for viability and mean fluorescence intensity (MFI) of RFP and GFP.

[4] = tested on: ADAR1, CD44v3, MCL1-L; assay: LSC-associated transcripts and ADAR1 activity after treatment or ADAR1 shRNA knockdown; type: cell-based, human; conditions: phenocopied ADAR1 shRNA knockdown
From the text: For lentivirus-mediated knockdown of human ADAR1 in ADAR1 activation and RNA editing biomarker studies of the nanoluc-GFP reporter and endogenous transcripts, human leukemia cells were stably transduced with the lentiviral shRNA vectors targeting ADAR1 (shADAR1) or scrambled control (shCtrl) to ablate endogenous ADAR1 expression. The shRNA plasmids targeting ADAR1 (shADAR1) as well as the scrambled control (shCtrl) were purchased from VectorBuilder (Chicago, IL) (shCtrl: […] (SEQ ID NO:3) and shADAR1: […]) (SEQ ID NO:4). […] Viral titers were assessed by qRT-PCR and transduction efficiency was tested in 293T cells. […]
For quantitative analysis of splice isoform expression, RNA editing rates, and whole gene expression by qRT-PCR, cells or tissue fragments were harvested in RNA lysis buffer and total RNA was extracted using RNeasy mini or micro extraction kits (QIAGEN, Germantown, MD) following the manufacturer's protocol including a DNase incubation step to digest any trace genomic DNA present. Levels of ADAR1 variants and LSC-specific transcripts were quantified by qRT-PCR as previously described.^14 RNA-editing site-specific qRT-PCR (RESSqPCR) was performed for variants in AZIN1 transcripts.^53 Additional species-specific primers were also designed to quantify intron retention rates in cells treated with Rebecsinib as a biomarker of response to RNA splicing modulation. […]

[5] = tested on: sAML LSC; assay: Humanized sAML LSC mouse model; type: in vivo, human cells in Rag2-/-γc-/- mice; conditions: twice weekly dosing; splicing factor mutated and unmutated samples
From the text: In humanized mouse models, sAML cells (CD34^+) from two unique […] patient samples that were splicing factor mutated or unmutated were utilized, including sAML50261 and sAML2008-5.^14 For in vivo efficacy and therapeutic index studies, sAML CD34^+ cells, or normal human cord blood-derived or aged bone marrow-derived HSPCs (CD34^+), were transplanted (50,000-200,000 cells per mouse) intrahepatically into neonatal Rag2^−/−γc^−/− mice, or intravenously into adult NSG-SGM3 mice (Jackson Laboratories, Bar Harbor, ME). A subset of experiments was performed with normal aged bone marrow cells that were transduced with the lentiviral ADAR1 nanoluc-GFP reporter vector prior to transplant. […] For animals that received transplants of cells transduced with the lentiviral ADAR1 nanoluc-GFP reporter, mice were imaged 15 weeks after transplant on the IVIS 200, as previously described.^79 Following treatment with Rebecsinib (five intravenous doses total over a two-week period), hematopoietic tissues (peripheral blood, bone marrow, spleens) were collected and analyzed by flow cytometry as previously described.^14 For splice isoform-specific qRT-PCR or RNA-seq analyses on cells from in vivo studies, human CD34^+ LSC from bone marrows and spleens of engrafted mice were isolated by magnetic bead separation (Miltenyi Biotec).

For `CC[C@H](OC)[C@@H](C)[C@H]1O[C@@H]1[C@@H](O)[C@H](C)/C=C/C=C(\C)[C@H]1OC(=O)C[C@H](O)CC[C@@](C)(O)[C@@H](OC(C)=O)/C=C/[C@@H]1C` [Rebecsinib], the “CD45+CD3+GFP+ cells in PB, SP, and BM” value [1] was “spares the cell populations”, the “CD45+GFP+ cells in PB, SP, and BM” value [1] was “spares the cell populations” and the phospho-STAT3 expression [2] was “reduced phospho-STAT3 expression”. For the same compound, the “RFP to GFP reporter expression” value [3] was “increased RFP to GFP reporter expression in a dose-dependent manner”, the ADAR1 activity [4] was “repression of ADAR1 activity” and the “expression of LSC-associated transcripts, such as CD44v3 and MCL1-L” value [4] was “reduced expression of LSC-associated transcripts”. For the same compound, the “sAML LSC burden in bone marrow, peripheral blood, and spleen” value [5] was “significant reduction in sAML LSC burden”.
